Here are results for four compounds from ChEMBL document CHEMBL5380795, “Design, Synthesis, and Bioactivity Investigation of Cyclic Lipopeptide Antibiotics Containing Eight to Nine Amino Acids” (J Med Chem, 2023).

Converted amounts (≈) assume the structure as drawn. Some results are limits rather than exact numbers.

Data set [1] concerns Acinetobacter baumannii. In words: Antibacterial activity against oxacillinase-27 producing Acinetobacter baumannii NCTC 13304 assessed as inhibition of bacterial growth incubated for 18 to 24 hrs by broth microdilution method. Format: functional. The following applies: time 18-24 hrs. On the technique in general: Dilution methods test growth across graded concentrations, often in twofold steps.

Data set [2] relates to Staphylococcus epidermidis. As to the kind of experiment: Antibacterial activity against methicillin resistant Staphylococcus epidermidis clinical isolate 19-5 assessed as inhibition of bacterial growth incubated for 18 to 24 hrs by broth microdilution method. The following applies: time 18-24 hrs. It is filed as functional.
Data set [3] has as its system Klebsiella pneumoniae. As to the kind of experiment: Antibacterial activity against carbapenem resistant Klebsiella pneumoniae clinical isolate 19-15 assessed as inhibition of bacterial growth incubated for 18 to 24 hrs by broth microdilution method. Format: functional. The following applies: time 18-24 hrs.
Data set [4] deals with Pseudomonas aeruginosa. In words: Antibacterial activity against carbapenem resistant Pseudomonas aeruginosa clinical isolate 17-1 assessed as inhibition of bacterial growth incubated for 18 to 24 hrs by broth microdilution method. The following applies: time 18-24 hrs. Format: functional.
In data set [5] the test system is Escherichia coli. As to the kind of experiment: Antibacterial activity against KPC producing Escherichia coli ATCC BAA-2340 assessed as inhibition of bacterial growth incubated for 18 to 24 hrs by broth microdilution method. It is filed as functional. The following applies: time 18-24 hrs.
Data set [6] concerns Staphylococcus aureus. As to the kind of experiment: Antibacterial activity against Staphylococcus aureus ATCC 29213 assessed as inhibition of bacterial growth incubated for 18 to 24 hrs by broth microdilution method. Format: functional. The following applies: time 18-24 hrs.
The nature of data set [7]: Selectivity index, ratio of IC50 for cytotoxicity against human HK-2 cells to MIC for antibacterial activity against Escherichia coli ATCC BAA-2523. It is filed as toxicity, cell-based.
The nature of data set [8]: Cytotoxicity against human HK-2 cells assessed as inhibition of cell growth incubated for 72 hrs by CCK-8 assay. Format: toxicity, cell-based. A general note: Formazan colour is commonly taken as a measure of viable cells.
The test system of data set [9] is Acinetobacter baumannii. In words: Antibacterial activity against carbapenem resistant Acinetobacter baumannii clinical isolate 19-8 assessed as inhibition of bacterial growth incubated for 18 to 24 hrs by broth microdilution method. Format: functional. The following applies: time 18-24 hrs.
The subject of data set [10] is Klebsiella pneumoniae. As to the kind of experiment: Antibacterial activity against carbapenem resistant Klebsiella pneumoniae clinical isolate 19-17 assessed as inhibition of bacterial growth incubated for 18 to 24 hrs by broth microdilution method. The following applies: time 18-24 hrs. It is filed as functional.
Data set [11] has as its system Staphylococcus epidermidis. In words: Antibacterial activity against methicillin resistant Staphylococcus epidermidis clinical isolate 19-6 assessed as inhibition of bacterial growth incubated for 18 to 24 hrs by broth microdilution method. Format: functional. The following applies: time 18-24 hrs.
Data set [12] has as its system Escherichia coli. In words: Antibacterial activity against Escherichia coli ATCC BAA-2523 assessed as inhibition of bacterial growth incubated for 18 to 24 hrs by broth microdilution method. Format: functional. The following applies: time 18-24 hrs.
Data set [13] deals with Staphylococcus aureus. As to the kind of experiment: Antibacterial activity against methicillin resistant Staphylococcus aureus ATCC 33591 assessed as inhibition of bacterial growth incubated for 18 to 24 hrs by broth microdilution method. It is filed as functional. The following applies: time 18-24 hrs.
For data set [14], the system named is Pseudomonas aeruginosa. In words: Antibacterial activity against Pseudomonas aeruginosa clinical isolate 19-1 assessed as inhibition of bacterial growth incubated for 18 to 24 hrs by broth microdilution method. It is filed as functional. The following applies: time 18-24 hrs.
Data set [15] deals with Pseudomonas aeruginosa. As to the kind of experiment: Antibacterial activity against Pseudomonas aeruginosa ATCC 27853 assessed as inhibition of bacterial growth incubated for 18 to 24 hrs by broth microdilution method. It is filed as functional. The following applies: time 18-24 hrs.
Data set [16] relates to Escherichia coli. As to the kind of experiment: Antibacterial activity against Escherichia coli NCTC 13353 assessed as inhibition of bacterial growth incubated for 18 to 24 hrs by broth microdilution method. Format: functional. The following applies: time 18-24 hrs.
In data set [17] the test system is Pseudomonas aeruginosa. In words: Antibacterial activity against carbapenem resistant Pseudomonas aeruginosa clinical isolate 19-3 assessed as inhibition of bacterial growth incubated for 18 to 24 hrs by broth microdilution method. It is filed as functional. The following applies: time 18-24 hrs.
The subject of data set [18] is Escherichia coli. In words: Antibacterial activity against Escherichia coli clinical isolate 19-2 assessed as inhibition of bacterial growth incubated for 18 to 24 hrs by broth microdilution method. Format: functional. The following applies: time 18-24 hrs.
The test system of data set [19] is Klebsiella pneumoniae. In words: Antibacterial activity against KPC producing Klebsiella pneumoniae ATCC BAA-1705 assessed as inhibition of bacterial growth incubated for 18 to 24 hrs by broth microdilution method. It is filed as functional. The following applies: time 18-24 hrs.

In the case of `CC(C)C[C@@H]1NC(=O)[C@@H](CC(C)C)NC(=O)[C@H](CCN)NC(=O)[C@@H](NC(=O)[C@@H](CCN)NC(=O)CCCCCC(C)(C)C)CCNC(=O)[C@H]([C@@H](C)O)NC(=O)[C@H](CCN)NC(=O)[C@H](CCN)NC1=O`, the MIC (as a rule, the lowest concentration that inhibits growth of the organism) in [1] was above 64 mg/L; in data set [2] it was 8 mg/L (≈ 8.14 µM); in data set [3], 64 mg/L (≈ 65.2 µM); in [4] it was 8 mg/L (≈ 8.14 µM); in data set [5] it was 16 mg/L (≈ 16.3 µM); in data set [6] it was above 64 mg/L. The MIC is above 64 mg/L in [9]; above 64 mg/L in data set [10]; above 64 mg/L in [11]; 32 mg/L (≈ 32.6 µM) in data set [12]; above 64 mg/L in data set [13]; 2 mg/L (≈ 2.04 µM) in [14]. Moreover, the minimum inhibitory concentration (MIC) in data set [15] was found to be 2 mg/L (≈ 2.04 µM); in [16], 32 mg/L (≈ 32.6 µM); in data set [17] it was 8 mg/L (≈ 8.14 µM); in data set [18] it was 32 mg/L (≈ 32.6 µM); in data set [19], 32 mg/L (≈ 32.6 µM). For the same compound, in data set [7], the selectivity ratio turned out to be 1.3. In addition, in data set [8], the IC50 (commonly the concentration needed to halve the response being measured) at 72 h was 40.4 mg/L (≈ 41.1 µM).
Take `CCCCCCCCCC(=O)N[C@H](CCN)C(=O)N[C@H]1CCNC(=O)[C@H](CO)NC(=O)[C@H](CCN)NC(=O)[C@H](CCN)NC(=O)[C@H](Cc2ccccc2)NC(=O)[C@@H](CC(C)C)NC(=O)[C@H](CCN)NC1=O`: the MIC in data set [1] is above 64 mg/L; in data set [2], 4 mg/L (≈ 3.99 µM); in [3], 32 mg/L (≈ 31.9 µM); in data set [4], 64 mg/L (≈ 63.9 µM); in data set [5], 16 mg/L (≈ 16 µM); in data set [6] it was 64 mg/L (≈ 63.9 µM). Besides, the MIC in [9] was above 64 mg/L; in data set [10] it was 64 mg/L (≈ 63.9 µM); in data set [11] it was 2 mg/L (≈ 2 µM); in data set [12], 16 mg/L (≈ 16 µM); in [13] it was above 64 mg/L; in data set [14], 16 mg/L (≈ 16 µM). The minimal inhibitory concentration (MIC) in data set [15] was 64 mg/L (≈ 63.9 µM); in [16] it was 32 mg/L (≈ 31.9 µM); in data set [17], 16 mg/L (≈ 16 µM); in [18] it was 16 mg/L (≈ 16 µM); in [19], 8 mg/L (≈ 7.98 µM). For the same compound, the selectivity ratio in data set [7] came to 9.1. Further, the IC50 at 72 h in data set [8] is 146 mg/L (≈ 145 µM).
For `CCCCCCC[C@@H](O)CC(=O)N[C@H](CCN)C(=O)N[C@H]1CCNC(=O)[C@H]([C@@H](C)O)NC(=O)[C@H](CCN)NC(=O)[C@H](CCN)NC(=O)[C@H](CC(C)C)NC(=O)[C@@H](CC(C)C)NC(=O)[C@H](CCN)NC1=O`, the MIC in data set [1] is 64 mg/L (≈ 64.1 µM); in data set [2], 16 mg/L (≈ 16 µM); in [3] it was 16 mg/L (≈ 16 µM); in data set [4] it was 0.5 mg/L (≈ 0.501 µM); in [5], 8 mg/L (≈ 8.01 µM); in [6], above 64 mg/L. Also, the MIC in [9] was 64 mg/L (≈ 64.1 µM); in [10], 8 mg/L (≈ 8.01 µM); in data set [11], 64 mg/L (≈ 64.1 µM); in data set [12] it was 4 mg/L (≈ 4.01 µM); in [13], above 64 mg/L; in data set [14], 0.5 mg/L (≈ 0.501 µM). Moreover, the MIC was 0.5 mg/L (≈ 0.501 µM) in [15]; 16 mg/L (≈ 16 µM) in [16]; 1 mg/L (≈ 1 µM) in data set [17]; 8 mg/L (≈ 8.01 µM) in data set [18]; 2 mg/L (≈ 2 µM) in data set [19]. Also, in [7], the selectivity ratio was determined as 51.5. The IC50 at 72 h in [8] was determined as 206 mg/L (≈ 206 µM).
Take `CCCCCCCCCC(=O)N[C@H](CCN)C(=O)N[C@H]1CCNC(=O)[C@H]([C@@H](C)O)NC(=O)[C@H](CCN)NC(=O)[C@H](CCN)NC(=O)[C@H](CC(C)C)NC(=O)[C@@H](Cc2ccc(C(C)(C)C)cc2)NC(=O)[C@H](CCN)NC1=O`: the MIC amounted to 16 mg/L (≈ 14.9 µM) in [1]; 0.5 mg/L (≈ 0.466 µM) in data set [2]; 4 mg/L (≈ 3.73 µM) in [3]; 4 mg/L (≈ 3.73 µM) in data set [4]; 2 mg/L (≈ 1.86 µM) in data set [5]; 4 mg/L (≈ 3.73 µM) in data set [6]. For the same compound, the MIC was found to be 16 mg/L (≈ 14.9 µM) in [9]; 2 mg/L (≈ 1.86 µM) in data set [10]; 2 mg/L (≈ 1.86 µM) in data set [11]; 1 mg/L (≈ 0.932 µM) in [12]; 4 mg/L (≈ 3.73 µM) in data set [13]; 4 mg/L (≈ 3.73 µM) in [14]. For the same compound, the MIC in data set [15] was 2 mg/L (≈ 1.86 µM); in data set [16] it was 4 mg/L (≈ 3.73 µM); in [17], 2 mg/L (≈ 1.86 µM); in [18] it was 2 mg/L (≈ 1.86 µM); in data set [19] it was 2 mg/L (≈ 1.86 µM). Besides, the selectivity ratio in data set [7] worked out at 15.9. Besides, in [8], the half-maximal inhibitory concentration (IC50) at 72 h is 15.9 mg/L (≈ 14.8 µM).
